In patent publication US8597616B2 (priority 2007, dated 2013):

What was measured:
[1] = test system: swine model of cardiac arrest; conditions: in vivo
[2] = test system: normovolemic swine model; conditions: in vivo

CNC[C@H](O)c1ccc(O)c(O)c1 [epinephrine, (R)-4-(1-hydroxy-2-(methylamino)ethyl)benzene-1,2-diol]
peak MAP [1]: 90 mmHg
sustained pressure over baseline [1]: greater than 50 mmHg
time post injection at which increases in MAP were detected [1]: 10 to 20 s
time post injection to peak MAP [1]: ≤ 60 s
time to MAP peak at sustained pressure over baseline [1]: ≤ 80 s
time until physiological effects (increase in MAP over baseline MAP) were detected [1]: < 20 seconds
time until rapid and sustained MAP occurred [1]: < 60 s
increase of MAP over baseline [2]: more than 60 mmHg
time post injection at which increases in MAP were detected [2]: 10 to 20 s
time post injection to peak MAP [2]: ≤ 60 s
sustained MAP ([2]; 0.4 mg/kg): more than 60 mmHg
time post-injection at which an increase in MAP was detected ([2]; iv): 30 s
time from administration until absorbed and placed into the circulating blood ([2]; swine): 10 to 20 s
